# Key:
# Ggt = assay: Plant pot experiments, control of take-all in wheat (Take-All Index); assay type: in vivo, Gaeumannomyces graminis
# Protocol: Agronomic evaluation of control effectiveness of the formulations developed on the Ggt fungus was conducted through the establishment of 26 experiments in plant pots. These experiments allowed to evaluate new formulations, or correct defective aspects of the formulations developed. Evaluation methodology was made under greenhouse and awning conditions, considering: soil use of Yerbas Buenas ([…] Region VII), which was sterilized by autoclave and inoculated with Ggt grown in oat grains during 40 days. Soil was placed in PVC plant pots arranged on a wooden plate, where it was seeded with a wheat seed of cv. Dalcahue-INIA.
# In these experiences two sample treatments were used (with and without inoculum) and one commercial sample Silthiofam (Latitude®, Monsanto) in dosis of 2 L/ton of seed to compare the effectiveness of different slow release formulations or “Slow release” based on quillay extract.
# Gaeumannomyces graminis = assay: Field tests in Region IX of Chile, root rot in wheat plants; assay type: in vivo; conditions: four field experiments, highly rainy season
# Excerpt: This invention refers to natural fungicides used in seed treatment or soil treatment, that are obtained from quillay extract formulation, rich in saponin concentrations, to which synthetic polymers have been adhered (latex and resins) allowing its slow release in the soil, and which efficiency and control have been tested at a plant pot and field experiment level on fungus Gaeumannomyces graminis, which is the cause of take-all of wheat.
# [1] = FIG. 6 experiment, Oct. 3, 2005
# [2] = average of plant pot experiments
structure (smiles),measurement,setting,value
C=CCNC(=O)c1c([Si](C)(C)C)sc(C)c1C [Silthiofam],control with respect to the inoculated sample,"Ggt; FIG. 2 experiment, seed treatment, Silthiofam 2 L/ton of seed",44%
same,control with respect to the inoculated sample,"Ggt; FIG. 3 experiment, seed treatments, QL 1000 4 L per ha",50.8%
same,Take-All Index (TAI),Ggt; [1],28
same,control with respect to the non-treated sample,Ggt; [1],71%
same,"Take-All Index (TAI), average among all experiences",Ggt; [2],24.6
same,average control level with respect to the inoculated sample,Ggt; [2],67.5%
same,effectiveness in field experiments,Gaeumannomyces graminis,did not show effectiveness

# Reference: patent US20110190123A1, “SLOW-RELEASE FORMULATIONS CONTAINING QUILLAY EXTRACTS, FOR CONTROLLING WHEAT TAKE-ALL DISEASE” (priority 2008, published 2011)
